# Paper PMC9839694, “Genetic basis of thiaminase I activity in a vertebrate, zebrafish Danio rerio” (Scientific Reports, 2023)
# Counter-ions that a name gives are not always drawn.
# Experiments:
# [1] = target: T1, zebrafish TenA-like thiaminase I (NP_001314821.1) (Danio rerio, UniProt A0A0R4IDF2); test: in-gel thiaminase I activity staining (diazo-coupling) after electrophoresis; type: biochemical; settings: 0.89 mM thiamine-HCl with a co-substrate, 25 mM sodium phosphate, 37 °C
# T1 construct: gene teni.1; synthetic gene in pET52b, expressed in E. coli Rosetta 2(DE3)pLysS, soluble lysate fraction; oligomer 25 to 100 kDa native
# T1 sequence (A0A0R4IDF2 22-223): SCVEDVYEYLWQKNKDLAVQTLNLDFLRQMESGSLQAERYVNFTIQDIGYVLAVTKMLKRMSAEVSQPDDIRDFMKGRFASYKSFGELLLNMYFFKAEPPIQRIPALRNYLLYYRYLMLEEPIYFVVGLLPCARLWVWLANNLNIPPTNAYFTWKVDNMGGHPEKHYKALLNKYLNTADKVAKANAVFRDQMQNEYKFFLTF
# [2] = target: T2, Paenibacillus thiaminolyticus thiaminase I (WP_087440168) (Paenibacillus thiaminolyticus, UniProt B0FJ10); test: as above; type: biochemical; settings: 0.89 mM thiamine-HCl with a co-substrate, 25 mM sodium phosphate, 37 °C; recombinant positive control
# T2 construct: gene bcmE; native enzyme in concentrated culture supernatant (strain 8188), and recombinant positive control from synthetic gene in pET52b in E. coli; 42 kDa monomer
# T2 sequence (B0FJ10 31-409): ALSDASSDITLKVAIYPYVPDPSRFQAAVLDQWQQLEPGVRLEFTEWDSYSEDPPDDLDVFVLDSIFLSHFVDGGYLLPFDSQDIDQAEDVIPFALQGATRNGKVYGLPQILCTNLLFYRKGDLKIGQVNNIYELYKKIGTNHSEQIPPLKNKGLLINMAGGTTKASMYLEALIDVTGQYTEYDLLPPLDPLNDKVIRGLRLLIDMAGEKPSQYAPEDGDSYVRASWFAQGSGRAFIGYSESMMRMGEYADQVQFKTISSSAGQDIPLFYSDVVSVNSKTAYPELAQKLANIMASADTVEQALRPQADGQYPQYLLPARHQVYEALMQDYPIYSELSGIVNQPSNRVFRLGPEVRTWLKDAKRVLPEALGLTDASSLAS
smiles,measurement,setting,value
Cc1ncc(C[n+]2csc(CCO)c2C)c(N)n1 [thiamine-HCl],in-gel thiaminase I activity staining (diazo-coupling) after electrophoresis,[1],expressed in the soluble fraction of the protein extract and showed thiaminase I activity
same,in-gel thiaminase I activity staining (diazo-coupling) after electrophoresis,[2],stained for activity showing thiamine degradation as clear areas
